Columns and labels:
[1] = system: HIV-1 NL4.3 or IIIB; experiment: Inhibition of HIV-1 (NL4.3 or IIIB, CXCR4 using) replication in MT-4 cells, MTT viability; assay type: cell-based; conditions: Human immunodeficiency virus 1, IIIB, MT4, concentration protecting 50% of virus-infected cells against viral cytopathicity
Method: Assay for Inhibition of HIV-1 (NL4.3) Replication in MT-4 Cells Inhibition of HIV-1 NL4.3 (or IIIB, CXCR4 using) replication assays were performed as previously described (Bridger et al. J. Med. Chem. 1999, 42, 3971-3981; De […] et al. Proc. Natl. Acad. Sci, 1992, 89, 5286-5290; De […] et al. Antimicrob. Agents Chemother. 1994, 38, 668-674; Bridger et al. J. Med. Chem. 1995, 38, 366-378; Schols et al. J. Exp. Med., 1997, 186, 1383-1388). Anti-HIV activity and cytotoxicity measurements were carried out in parallel. They were based on the viability of MT-4 cells that had been infected with HIV in the presence of various concentrations of the test compounds. After the MT-4 cells were allowed to proliferate for 5 days, the number of viable cells was quantified by a tetrazolium-based colorimetric 3-(4,5-dimethylthiazol-2-yl)-2,5-diphenyltetrazolium bromide (MTT) procedure in 96-well microtrays. In all of these assays, viral input (viral multiplicity of infection, MOI) was 0.01, or 100 times the 50% cell culture infective dose (CCID50). The EC50 was defined as the concentration required to protect 50% of the virus-infected cells against viral cytopathicity.

[2] = system: SDF-1 induced Ca flux in SUP-T1 cells; experiment: Inhibition of chemokine (SDF-1) induced Ca flux measured on a FLIPR; assay type: cell-based; conditions: Homo sapiens
Method: Inhibition of Chemokine Induced Ca Flux Measured on a FLIPR (Molecular Devices) Loading dye: Fluo-3, AM (Molecular Probes F-1241) is dissolved in anhydrous DMSO and stored frozen in aliquots. To increase the solubility of the dye in the loading medium, 10% (w/v) pluronic acid (Molecular Probes F-127) is added to the Fluo-3 stock solution immediately before use. HBSS+20 mM Hepes buffer+0.2% BSA, pH 7.4. HBSS 10× [(w/o phenol red and sodium bicarbonate (Gibco 14 065–049)]; Hepes buffer 1M (Gibco 15 630–056), BSA (Sigma A3675). The flux buffer is vacuum-filtered and stored refrigerated for a maximum of 5 days. Before use in the experiment, the buffer is warmed at 37° C. in a waterbath. The test compounds were diluted in flux buffer to the desired concentration and added to 4 wells of a black microplate (4 parallel measurements per compound). The following control wells were used: 100% response control (no inhibition), flux buffer was added; 100% inhibition control: chemokine was added at 5-times the concentration required to induce a Ca flux. The chemokines are diluted in flux buffer to concentrations that are 4-fold higher than the desired concentrations required for stimulation of the cells (i.e. 2.5 nM for SDF-1[…] and 0.6 nM for RANTES). The chemokines were added to untreated 96-well Sero well compound plates (International Medical, Sterilin code 611F96). In the negative control well's (baseline monitoring), flux buffer is added instead of chemokine. As a positive control to check for dye loading efficiency, 20 μM digitonin (final concentration) was also included. The agonist plate was incubated in the FLIPR (37° C.) for 15–30 min. Cell Loading Protocol for Measuring Inhibition of SDF-1[…] Induced Ca Flux in SUP-T1 Cells. SUP-T1 cells were centrifuged at room temperature (RT) and re-suspended in loading medium (RPMI-1640 containing 2% FBS and 4 μM Fluo-3, AM). The cells were incubate at room temperature for 45 min. then washed twice in flux buffer then incubated in flux buffer at room temperature for 10 min. The cells were centrifuged and re-suspended in flux buffer at a density of 3×10^6 cells per mL. A 100 uL aliquot of the cell suspension (3×10^5 cells) was added to each well of a black microplate (Costar 3603), which already contains 50 uL of a solution of the test compound (at concentrations that are 3-fold higher than the desired final compound concentrations). The microplate is then gently centrifuged at room temperature. Homogeneous spreading of the cells on the bottom of the microplate wells was then confirmed with a microscope and the microplate was incubated in the FLIPR (37° C.) for 10 min. prior to testing. Fluorescence Measurements as a Function of Time on the FLIPR The FLIPR settings (camera exposure time and laser power) are adjusted to obtain initial fluorescence values between 8,000 and 10,000 units. After monitoring a 20 second-baseline, the agonist (chemokine) (50 uL) is added by automatic pipettor with black pipette tips. Fluorescence is measured simultaneously in all wells of the microplate every 2 seconds (first 2 min) and thereafter every 6 seconds (additional 2 min). The average ca-flux measured in each set of 4 identical wells (one test compound) was calculated by the FLIPR software.

EC50 [1]	Compound	inhibition at 20 µg/mL [2]
< 20 µg/mL	[O-][n+]1ccccc1CNCc1ccc(CN(Cc2nc3ccccc3[nH]2)C2CCCc3cccnc32)cc1 (centres unmarked) [Example 70, N-(1-oxo-2-pyridinylmethyl)-N′-(1H-benzimidazol-2-ylmethyl)-N′-(5,6,7,8-tetrahydro-8-quinolinyl)-1,4-benzenedimethanamine]	–
< 20 µg/mL	Oc1cccc(CNCc2ccc(CN(Cc3nc4ccccc4[nH]3)C3CCCc4cccnc43)cc2)n1 (centres unmarked) [Example 58, N-(6-hydroxy-2-pyridinylmethyl)-N′-(1H-benzimidazol-2-ylmethyl)-N′-(5,6,7,8-tetrahydro-8-quinolinyl)-1,4-benzenedimethanamine]	> 20%
< 20 µg/mL	c1ccc(CNCc2ccc(CN(Cc3nc4ccccc4[nH]3)C3CCOc4cccnc43)cc2)nc1 (centres unmarked) [Example 40, N-(2-pyridinylmethyl)-N′-(1-H-benzimidazol-2-ylmethyl)-N′-(3,4-dihydro-2H-pyrano[3,2-b]pyridinyl)-1,4-benzenedimethanamine]	> 20%
< 20 µg/mL	Cc1cccnc1CNCc1ccc(CN(Cc2nc3ccccc3[nH]2)C2CCCc3cccnc32)cc1 (centres unmarked) [Example 56, N-(3-methyl-2-pyridinylmethyl)-N′-(1H-benzimidazol-2-ylmethyl)-N′-(5,6,7,8-tetrahydro-8-quinolinyl)-1,4-benzenedimethanamine]	> 20%
< 20 µg/mL	c1ccc(N[C@H]2CCCC[C@@H]2N(Cc2ccc(CNCc3ccccn3)cc2)Cc2nc3ccccc3[nH]2)cc1 [Example 131]	–
< 20 µg/mL	c1cnc2c(c1)CCCC2NCc1ccc(CN(Cc2nc3ccccc3[nH]2)C2CCCc3cccnc32)cc1 (centres unmarked) [Example 60, N-(5,6,7,8-tetrahydro-8-quinolinyl)-N′-(1H-benzimidazol-2-ylmethyl)-N′-(5,6,7,8-tetrahydro-8-quinolinyl)-1,4-benzenedimethanamine]	> 20%
< 20 µg/mL	CCOc1cccnc1CNCc1ccc(CN(Cc2nc3ccccc3[nH]2)C2CCCc3cccnc32)cc1 (centres unmarked) [Example 69, N-(3-ethoxy-2-pyridinylmethyl)-N′-(1H-benzimidazol-2-ylmethyl)-N′-(5,6,7,8-tetrahydro-8-quinolinyl)-1,4-benzenedimethanamine]	–
< 20 µg/mL	COc1cccnc1CNCc1ccc(CN(Cc2nc3ccccc3[nH]2)C2CCCc3cccnc32)cc1 (centres unmarked) [Example 65, N-(3-methoxy-2-pyridinylmethyl)-N′-(1H-benzimidazol-2-ylmethyl)-N′-(5,6,7,8-tetrahydro-8-quinolinyl)-1,4-benzenedimethanamine]	> 20%

Second part, the compound before the results:

Compound	EC50 [1]	inhibition at 20 µg/mL [2]
Fc1ccc(-c2c[nH]c(CN(Cc3ccc(CNCc4ccccn4)cc3)C3CCCc4cccnc43)n2)cc1 (centres unmarked) [Example 36, N-(2-Pyridinylmethyl)-N′-[4-(4-fluorophenyl)-1H-imidazol-2-ylmethyl]-N′-(5,6,7,8-tetrahydro-8-quinolinyl)-1,4-benzenedimethanamine]	< 20 µg/mL	> 20%
c1ccc(CNCc2ccc(CN(CCc3nc4ccccc4[nH]3)C3CCCc4cccnc43)cc2)nc1 (centres unmarked) [Example 23]	< 20 µg/mL	> 20%
Brc1cccc2nc(CN(Cc3ccc(CNCc4ccccn4)cc3)C3CCCc4cccnc43)[nH]c12 (centres unmarked) [Example 22, N-(2-pyridinylmethyl)-N′-(4-bromobenzimidazol-2-ylmethyl)-N′-(5,6,7,8-tetrahydro-8-quinolinyl)-1,4-benzenedimethanamine]	< 20 µg/mL	> 20%
c1ccc(CNCc2ccc(CN(CCCn3cnc4ccccc43)C3CCCc4cccnc43)cc2)nc1 (centres unmarked) [Example 38, N-(2-pyridinylmethyl)-N′-[3-(benzimidazol-1-yl)prop-1-yl]-N′-(5,6,7,8-tetrahydro-8-quinolinyl)-1,4-benzenedimethanamine]	< 20 µg/mL	> 20%
Fc1ccc2nc(CN(Cc3ccc(CNCc4ccccn4)cc3)C3CCCc4cccnc43)[nH]c2c1 (centres unmarked) [Example 3, N-(2-pyridinylmethyl)-N′-(5-fluoro-1-H-benzimidazol-2-ylmethyl)-N′-(5,6,7,8-tetrahydro-8-quinolinyl)-1,4-benzenedimethanamine]	< 20 µg/mL	> 20%
O=C(c1ccccc1)c1ccc2[nH]c(CN(Cc3ccc(CNCc4ccccn4)cc3)C3CCCc4cccnc43)nc2c1 (centres unmarked) [Example 9, N-(2-pyridinylmethyl)-N′-(5-benzoyl-1H-benzimidazol-2-ylmethyl)-N′-(5,6,7,8-tetrahydro-8-quinolinyl)-1,4-benzenedimethanamine]	< 20 µg/mL	> 20%
Cc1cccc2nc(CN(Cc3ccc(CNCc4ccccn4)cc3)C3CCCc4cccnc43)[nH]c12 (centres unmarked) [Example 20, N-(2-pyridinylmethyl)-N′-(4-methylbenzimidazol-2-ylmethyl)-N′-(5,6,7,8-tetrahydro-8-quinolinyl)-1,4-benzenedimethanamine]	< 20 µg/mL	> 20%
Fc1cccc2nc(CN(Cc3ccc(CNCc4ccccn4)cc3)C3CCCc4cccnc43)[nH]c12 (centres unmarked) [Example 21, N-(2-pyridinylmethyl)-N′-(4-fluorobenzimidazol-2-ylmethyl)-N′-(5,6,7,8-tetrahydro-8-quinolinyl)-1,4-benzenedimethanamine]	< 20 µg/mL	> 20%
c1ccc(CNCc2ccc(CN(CCCc3nc4ccccc4[nH]3)C3CCCc4cccnc43)cc2)nc1 (centres unmarked) [Example 24, N-(2-pyridinylmethyl)-N′-[3-(1H-benzimidazol-2-yl)prop-1-yl]-N′-(5,6,7,8-tetrahydro-8-quinolinyl)-1,4-benzenedimethanamine]	< 20 µg/mL	> 20%
COc1ccc(OC)c2[nH]c(CN(Cc3ccc(CNCc4ccccn4)cc3)C3CCCc4cccnc43)nc12 (centres unmarked) [Example 15, N-(2-pyridinylmethyl)-N′-[4,7-dimethoxy-1H-benzimidazol-2-ylmethyl]-N′-(5,6,7,8-tetrahydro-8-quinolinyl)-1,4-benzenedimethanamine]	< 20 µg/mL	> 20%
FC(F)(F)c1cccc2nc(CN(Cc3ccc(CNCc4ccccn4)cc3)C3CCCc4cccnc43)[nH]c12 (centres unmarked) [Example 5, N-(2-pyridinylmethyl)-N′-(4-trifluoromethyl-1-H-benzimidazol-2-ylmethyl)-N′-(5,6,7,8-tetrahydro-8-quinolinyl)-1,4-benzenedimethanamine]	< 20 µg/mL	> 20%
COc1ccc(-c2cnc(CN(Cc3ccc(CNCc4ccccn4)cc3)C3CCCc4cccnc43)[nH]2)cc1 (centres unmarked) [Example 26, N-(2-pyridinylmethyl)-N′-[4-(4-methoxyphenyl)-1H-imidazol-2-ylmethyl]-N′-(5,6,7,8-tetrahydro-8-quinolinyl)-1,4-benzenedimethanamine]	< 20 µg/mL	> 20%
c1ccc(CNCc2ccc(CN(Cc3nc4ccccc4s3)C3CCCc4cccnc43)cc2)nc1 (centres unmarked) [Example 16, N-(2-pyridinylmethyl)-N′-(benzothiazol-2-ylmethyl)-N′-(5,6,7,8-tetrahydro-8-quinolinyl)-1,4-benzenedimethanamine]	< 20 µg/mL	–

— patent US7084155B2, “Chemokine receptor binding heterocyclic compounds” (AnorMED, priority 2000, dated 2006)
